Reference: patent publication US8420657B2 (Novartis AG, priority 2008, dated 2013)

Tests used:
[1] = test system: JAK2-dependent nuclear translocation of STAT5-GFP in U-2 OS osteosarcoma cells; experiment: STAT5 nuclear translocation assay (Cellomics), rhEpo stimulated U-2 OS STAT5-GFP cells; format: cell-based; details: Homo sapiens, U2OS; STAT5 translocation pathway
Procedure, shortened: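 U-2 OS cells stably expressing STAT5a-GFP and EpoR pre-treated with compound (final 10 μM to 0.003 μM, 0.1% DMSO) for 30 min at 37° C., then stimulated 1 h with 5 U/ml rhEpo. Nuclear-cytoplasmic GFP differential quantified by automated imaging (≥1000 cells/well, Hoechst nuclear mask). IC50 from % translocation normalized to untreated and DMSO-stimulated controls.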

GST-JAK2(808-1132) = biological target: T1, GST-JAK2(808-1132) (Homo sapiens, UniProt O60674); experiment: JAK2 kinase assay (Caliper mobility shift, LabChip 3000); format: biochemical
T1 construct: GST-JAK2(808-1132); purchased Invitrogen (Carlsbad, USA) #4288
T1 sequence (O60674 808-1132): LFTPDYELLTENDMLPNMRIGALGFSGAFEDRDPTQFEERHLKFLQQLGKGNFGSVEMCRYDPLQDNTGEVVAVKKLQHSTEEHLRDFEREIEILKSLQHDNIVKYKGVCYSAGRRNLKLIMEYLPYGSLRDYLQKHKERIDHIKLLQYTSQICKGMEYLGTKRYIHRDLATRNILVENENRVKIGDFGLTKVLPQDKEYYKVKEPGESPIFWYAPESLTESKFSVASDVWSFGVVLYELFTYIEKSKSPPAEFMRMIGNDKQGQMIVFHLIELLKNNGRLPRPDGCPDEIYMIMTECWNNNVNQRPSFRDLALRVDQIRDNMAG
Procedure, shortened: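 Recombinant GST-JAK2(808-1132) kinase domain with FITC-labelled JAK3tide peptide substrate and ATP; 60 min at 30 °C, EDTA stop. Substrate/product ratio read by microfluidic mobility shift; compounds at 8 final concentrations, 10 to 0.003 μM.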

IC50 [1] | IC50 (GST-JAK2(808-1132)) | SMILES
543 nM | 57 nM | Fc1cc(-n2ccc3cnc(Nc4ccc([C@H]5COCCN5CCOCc5ccccc5)cc4)nc32)cc(F)c1CN1CCOCC1 [Example 520, {4-[(S)-4-(2-Benzyloxy-ethyl)-morpholin-3-yl]-phenyl}-[7-(3,5-difluoro-4-morpholin-4-ylmethyl-phenyl)-7H-pyrrolo[2,3-d]pyrimidin-2-yl]-amine]
135 nM | 7.4 nM | Cc1ccc(Nc2ncc3ccn(-c4ccc(C(=O)N5CCOCC5)c(F)c4)c3n2)cc1CN1CCOC2(COC2)C1 [Example 359, (4-{2-[3-(2,5-Dioxa-8-aza-spiro[3,5]non-8-ylmethyl)-4-methyl-phenylamino]-pyrrolo[2,3-d]pyrimidin-7-yl}-2-fluoro-phenyl)-morpholin-4-yl-methanone]
22.1 nM | ≤ 3 nM | Fc1cc(-n2ccc3cnc(Nc4ccnc(OCCN5CCOCC5)c4)nc32)cc(F)c1CN1CCOCC1 [Example 352, [7-(3,5-Difluoro-4-morpholin-4-yl methyl-phenyl)-7H-pyrrolo[2,3-d]pyrimidin-2-yl]-[2-(2-morpholin-4-yl-ethoxy)-pyridin-4-yl]-amine]
53.5 nM | 4.5 nM | C[C@@H]1CN(Cc2c(F)cc(-n3ccc4cnc(Nc5ccc(N6CCNCC6)nc5)nc43)cc2F)C[C@H](C)O1 [Example 454, {7-[4-(cis-2,6-dimethyl-morpholin-4-ylmethyl)-3,5-difluoro-phenyl]-7H-pyrrolo[2,3-d]pyrimidin-2-yl}-(6-piperazin-1-yl-pyridin-3-yl)-amine]
2.7 nM | ≤ 3 nM | Cc1ccc(Nc2ncc3ccn(-c4cc(F)c(CN5CCS(=O)(=O)CC5)c(F)c4)c3n2)cc1CN1CCN(C)CC1 [Example 421, {7-[4-(1,1-Dioxido-thiomorpholin-4-ylmethyl)-3,5-difluoro-phenyl]-7H-pyrrolo[2,3-d]pyrimidin-2-yl}-[4-methyl-3-(4-methyl-piperazin-1-ylmethyl)-phenyl]-amine]
60 nM | 4.1 nM | CN1CCN(Cc2ccc(Nc3ncc4ccn(-c5cc(F)c(CN6CCOCC6)c(F)c5)c4n3)cn2)CC1=O [Example 505, 4-{5-[7-(3,5-Difluoro-4-morpholin-4-methyl-phenyl)-7H-pyrrolo[2,3-d]pyrimidin-2-ylamino]-pyridin-2-ylmethyl}-1-methyl-piperazin-2-one]
54 nM | ≤ 3 nM | Fc1cc(-n2ccc3cnc(Nc4ccc(OC5CCOCC5)nc4)nc32)cc(F)c1CN1CCOCC1 [Example 515, [7-(3,5-Difluoro-4-morpholin-4-ylmethyl-phenyl)-7H-pyrrolo[2,3-d]pyrimidin-2-yl]-[6-(tetrahydro-pyran-4-yloxy)-pyridin-3-yl]-amine]
1.3 nM | 4.3 nM | C[C@@H]1CN(c2ccc(Nc3ncc4ccn(-c5ccc(S(=O)(=O)NC(C)(C)C)cc5)c4n3)cn2)C[C@H](C)N1 [Example 351, N-tert-Butyl-4-{2-[6-(cis-3,5-dimethyl-piperazin-1-yl)-pyridin-3-ylamino]-pyrrolo[2,3-d]pyrimidin-7-yl}-benzenesulfonamide]
7.7 nM | ≤ 3 nM | COc1cc(Nc2ncc3ccn(-c4cc(F)c(CN5CCOCC5)c(F)c4)c3n2)cnc1N1C[C@@H](C)N[C@@H](C)C1 [Example 497, [7-(3,5-Difluoro-4-morpholin-4-ylmethyl-phenyl)-7H-pyrrolo[2,3-d]pyrimidin-2-yl]-[6-(cis-3,5-dimethyl-piperazin-1-yl)-5-methoxy-pyridin-3-yl]-amine]
12.3 nM | ≤ 3 nM | CC1(C)CN(Cc2ccc(Nc3ncc4ccn(-c5cc(F)c(CN6CCOCC6)c(F)c5)c4n3)cc2)CCN1 [Example 473, [7-(3,5-Difluoro-4-morpholin-4-ylmethyl-phenyl)-7H-pyrrolo[2,3-d]pyrimidin-2-yl]-[4-(3,3-dimethyl-piperazin-1-ylmethyl)-phenyl]-amine]
15 nM | 3.5 nM | OC1CN(Cc2ccc(Nc3ncc4ccn(-c5cc(F)c(CN6CCOCC6)c(F)c5)c4n3)cc2)C1 [Example 479, 1-{4-[7-(3,5-Difluoro-4-morpholin-4-ylmethyl-phenyl)-7H-pyrrolo[2,3-d]pyrimidin-2-ylamino]-benzyl}-azetidin-3-ol]
> 4000 nM | 4 nM | CN1CCN(Cc2cc(Nc3ncc4ccn(-c5ccc(C(=O)N6CCS(=O)(=O)CC6)c(F)c5)c4n3)ccn2)CC1 [Example 406, (1,1-Dioxido-thiomorpholin-4-yl)-(2-fluoro-4-{2-[2-(4-methyl-piperazin-1-ylmethyl)-pyridin-4-ylamino]-pyrrolo[2,3-d]pyrimidin-7-yl}-phenyl)-methanone]
2.8 nM | ≤ 3 nM | Fc1cc(-n2ccc3cnc(Nc4ccnc(N5CCNC(C(F)(F)F)C5)c4)nc32)cc(F)c1CN1CCOCC1 (racemic) [Example 364, [7-(3,5-Difluoro-4-morpholin-4-ylmethyl-phenyl)-7H-pyrrolo[2,3-d]pyrimidin-2-yl]-[2-(3-trifluoromethyl-piperazin-1-yl)-pyridin-4-yl]-amine]
45 nM | 13 nM | Cc1ccc(Nc2ncc3ccn(-c4cc(F)c(CN5CCOCC5)c(F)c4)c3n2)cc1CN1C[C@H](C)NC[C@H]1C (racemic) [Example 378, [7-(3,5-Difluoro-4-morpholin-4-ylmethyl-phenyl)-7H-pyrrolo[2,3-d]pyrimidin-2-yl]-[3-((2R,5S)-2,5-dimethyl-piperazin-1-ylmethyl)-4-methyl-phenyl]-amine]
1 nM | ≤ 3 nM | Cc1cc(Nc2ncc3ccn(-c4cc(F)c(CN5CCOCC5)c(F)c4)c3n2)cnc1N1C[C@@H](C)N[C@@H](C)C1 [Example 510, [7-(3,5-Difluoro-4-morpholin-4-ylmethyl-phenyl)-7H-pyrrolo[2,3-d]pyrimidin-2-yl]-[6-(cis-3,5-dimethyl-piperazin-1-yl)-5-methyl-pyridin-3-yl]-amine]
1.3 nM | ≤ 3 nM | Fc1cc(-n2ccc3cnc(Nc4ccc(C5CNCCO5)cc4)nc32)cc(F)c1CN1CCOCC1 (racemic) [Example 354, [7-(3,5-Difluoro-4-morpholin-4-ylmethyl-phenyl)-7H-pyrrolo[2,3-d]pyrimidin-2-yl]-(4-morpholin-2-yl-phenyl)-amine]
24 nM | 3.8 nM | Cc1ccc(Nc2ncc3ccn(-c4cc(F)c(CN5CCOCC5)c(F)c4)c3n2)cc1C(=O)N1CCN(C)CC1 [Example 451, {5-[7-(3,5-Difluoro-4-morpholin-4-ylmethyl-phenyl)-7H-pyrrolo[2,3-d]pyrimidin-2-ylamino]-2-methyl-phenyl}-(4-methyl-piperazin-1-yl)-methanone]
67 nM | ≤ 3 nM | C[C@@H]1CN(Cc2ccc(Nc3ncc4ccn(-c5cc(F)c(CN6CCOCC6=O)c(F)c5)c4n3)cc2)C[C@H](C)N1 [Example 484, 4-(4-{2-[4-(cis-3,5-Dimethyl-piperazin-1-ylmethyl)-phenylamino]-pyrrolo[2,3-d]pyrimidin-7-yl}-2,6-difluoro-benzyl)-morpholin-3-one]
144 nM | 8.4 nM | Cc1ccc(Nc2ncc3ccn(-c4ccc(C(=O)N5CCOCC5)c(F)c4)c3n2)cc1CN1C[C@@H](C)N[C@@H](C)C1 [Example 367, (4-{2-[3-(cis-3,5-Dimethyl-piperazin-1-ylmethyl)-4-methyl-phenylamino]-pyrrolo[2,3-d]pyrimidin-7-yl}-2-fluoro-phenyl)-morpholin-4-yl-methanone]
14 nM | ≤ 3 nM | Cc1cc(Nc2ncc3ccn(-c4cc(F)c(CN5CCOCC5)c(F)c4)c3n2)cnc1N1CCNCC(F)(F)C1 [Example 512, [6-(6,6-Difluoro-[1,4]diazepan-1-yl)-5-methyl-pyridin-3-yl]-[7-(3,5-difluoro-4-morpholin-4-ylmethyl-phenyl)-7H-pyrrolo[2,3-d]pyrimidin-2-yl]-amine]
83 nM | ≤ 3 nM | O=C1CNCCN1Cc1ccc(Nc2ncc3ccn(-c4cc(F)c(CN5CCOCC5)c(F)c4)c3n2)cc1 [Example 498, 1-{4-[7-(3,5-Difluoro-4-morpholin-4-ylmethyl-phenyl)-7H-pyrrolo[2,3-d]pyrimidin-2-ylamino]-benzyl}-piperazin-2-one]
18.3 nM | ≤ 3 nM | COC1CCN(Cc2cc(Nc3ncc4ccn(-c5cc(F)c(CN6CCOCC6)c(F)c5)c4n3)ccn2)C1 (racemic) [Example 426, [7-(3,5-Difluoro-4-morpholin-4-ylmethyl-phenyl)-7H-pyrrolo[2,3-d]pyrimidin-2-yl]-[2-(3-methoxy-pyrrolidin-1-ylmethyl)-pyridin-4-yl]-amine]
11 nM | 3.2 nM | CC(C)(C)NS(=O)(=O)c1ccc(-n2ccc3cnc(Nc4ccc(OCCN5CCCC5)cc4)nc32)cc1 [Example 363, N-tert-Butyl-4-{2-[4-(2-pyrrolidin-1-yl-ethoxy)-phenylamino]-pyrrolo[2,3-d]pyrimidin-7-yl}-benzenesulfonamide]
13 nM | ≤ 3 nM | CN1CCN(Cc2cc(Nc3ncc4ccn(-c5cc(F)c(CN6CCOCC6)c(F)c5)c4n3)ccn2)CC1=O [Example 397, 4-{4-[7-(3,5-Difluoro-4-morpholin-4-ylmethyl-phenyl)-7H-pyrrolo[2,3-d]pyrimidin-2-ylamino]-pyridin-2-ylmethyl}-1-methyl-piperazin-2-one]
8.3 nM | ≤ 3 nM | Cc1ccc(Nc2ncc3ccn(-c4cc(F)c(CN5CCOCC5)c(F)c4)c3n2)cc1CN1CCN(CCN(C)C)C(=O)C1 [Example 410, 4-{5-[7-(3,5-Difluoro-4-morpholin-4-ylmethyl-phenyl)-7H-pyrrolo[2,3-d]pyrimidin-2-ylamino]-2-methyl-benzyl}-1-(2-dimethylamino-ethyl)-piperazin-2-one]
